In PubChem BioAssay AID248 (DTP/NCI, 2004):
“And” between values parts separate entries of the source, which are not always exact repeats. Equal values may be shown once. Toxic doses and inconclusive results are not listed. No stated cut-off is given here; in the data, active means T/C of 150% or more; inactive means T/C below 125%.

Test system: L1210 leukemia ip in BDF1 mice, survival T/C
Experiment: NCI In Vivo Anticancer Drug Screen. Data for tumor model L1210 Leukemia (intraperitoneal) in B6D2F1 (BDF1) mice
Conditions: endpoint: mean survival time, higher = longer survival
Outline: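 Tumor was transplanted into mice, which were then dosed with test compound or vehicle alone. Survival was recorded for each group, and the treated figure was expressed relative to the control figure.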

[1] = dose: 25.0 mg/kg/injection, schedule: Q01DX009 (ip), vehicle: saline with Tween-80
[2] = dose: 50.0 mg/kg/injection, schedule: Q01DX009 (ip), vehicle: saline with Tween-80
[3] = dose: 100.0 mg/kg/injection, schedule: Q01DX009 (ip), vehicle: Klucel (hydroxypropylcellulose) (HPC)
[4] = dose: 200.0 mg/kg/injection, schedule: Q01DX009 (ip), vehicle: Klucel (hydroxypropylcellulose) (HPC)
[5] = dose: 400.0 mg/kg/injection, schedule: Q01DX009 (ip), vehicle: Klucel (hydroxypropylcellulose) (HPC)
[6] = dose: 5.0 mg/kg/injection, schedule: Q01DX001 (ip), vehicle: saline
[7] = dose: 100.0 mg/kg/injection, schedule: Q04DX003 (ip), vehicle: saline with Tween-80
[8] = dose: 200.0 mg/kg/injection, schedule: Q04DX003 (ip), vehicle: saline with Tween-80
[9] = dose: 100.0 mg/kg/injection, schedule: Q01DX009 (ip), vehicle: saline with Tween-80

Measured: T/C

CC12CCC(OC3OC(CO)C(OC4OC(CO)C(O)C(O)C4O)C(O)C3O)CC1CCC1C2CCC2(C)C(C3=CC(=O)OC3)CCC12O (centres undefined)
inactive: dose: 10.0 mg/kg/injection, schedule: Q01DX009 (ip), vehicle: saline 102 % of control | dose: 20.0 mg/kg/injection, schedule: Q01DX009 (ip), vehicle: saline 116 % of control | dose: 40.0 mg/kg/injection, schedule: Q01DX009 (ip), vehicle: saline 102 % of control

COc1cc2c(cc1OC)-c1cc3cc(OC)c(OC)cc3c(C)[n+]1CC2 (tested in a mixture with another compound)
inactive: dose: 12.5 mg/kg/injection, schedule: Q04DX002 (ip), vehicle: Klucel (hydroxypropylcellulose) (HPC) 110 % of control | [1] 104 % of control | dose: 25.0 mg/kg/injection, schedule: Q04DX002 (ip), vehicle: Klucel (hydroxypropylcellulose) (HPC) 106 % of control | [2] 107 % of control | dose: 50.0 mg/kg/injection, schedule: Q04DX002 (ip), vehicle: Klucel (hydroxypropylcellulose) (HPC) 95 % of control

N=c1ccccn1CC(O)COc1cccc([N+](=O)[O-])c1 (centres undefined)
inactive: dose: 100.0 mg/kg/injection, schedule: Q04DX002 (ip), vehicle: other 97 % of control | dose: 200.0 mg/kg/injection, schedule: Q04DX002 (ip), vehicle: other 93 % of control

CC(=O)OC1C(CF)OC(n2cnc3c(Cl)ncnc32)C1OC(C)=O (centres undefined)
inactive: dose: 100.0 mg/kg/injection, schedule: Q01DX005 (ip), vehicle: saline 98 % of control | dose: 200.0 mg/kg/injection, schedule: Q01DX005 (ip), vehicle: saline 97 % of control

COc1ccc(COC(=O)Nc2ccc(Br)cc2)c(OC)c1
inactive: [3] 98 % of control | [4] 104 % of control | [5] 101 % of control

CC(C)(C#N)N=NC(C)(C)C#N
inactive: dose: 25.0 mg/kg/injection, schedule: Q01DX009 (ip), vehicle: alcohol 96 % of control | dose: 50.0 mg/kg/injection, schedule: Q01DX009 (ip), vehicle: alcohol 96 % of control | dose: 50.0 mg/kg/injection, schedule: Q04DX003 (ip), vehicle: alcohol 98 % of control | dose: 100.0 mg/kg/injection, schedule: Q04DX003 (ip), vehicle: alcohol 95 % of control

COc1ccc2nc3ccccc3c(N)c2c1
inactive: [6] 100 % of control | dose: 10.0 mg/kg/injection, schedule: Q01DX001 (ip), vehicle: saline 100 % of control | dose: 20.0 mg/kg/injection, schedule: Q01DX001 (ip), vehicle: saline 97 % of control | dose: 40.0 mg/kg/injection, schedule: Q01DX001 (ip), vehicle: saline 90 % of control

CN(C)C(=O)c1ccccc1O
inactive: [3] 100 % of control | [4] 90 % of control | [5] 90 % of control

O=C1OC(=O)C2C1C1C3C(=O)C4C5C(=O)C3C2C5C41 (centres undefined)
inactive: dose: 75.0 mg/kg/injection, schedule: Q04DX002 (ip), vehicle: Klucel (hydroxypropylcellulose) (HPC) 97 % of control | dose: 150.0 mg/kg/injection, schedule: Q04DX002 (ip), vehicle: Klucel (hydroxypropylcellulose) (HPC) 97 % of control | dose: 300.0 mg/kg/injection, schedule: Q04DX002 (ip), vehicle: Klucel (hydroxypropylcellulose) (HPC) 97 % of control

O=[N+]([O-])c1ccc(N=NNc2ccc(N=Nc3ccccc3)cc2)cc1
inactive: dose: 25.0 mg/kg/injection, schedule: Q01DX009 (ip), vehicle: Klucel (hydroxypropylcellulose) (HPC) 91 % of control | dose: 25.0 mg/kg/injection, schedule: Q04DX003 (ip), vehicle: other 89 % of control | dose: 50.0 mg/kg/injection, schedule: Q01DX009 (ip), vehicle: Klucel (hydroxypropylcellulose) (HPC) 102 % of control | dose: 50.0 mg/kg/injection, schedule: Q04DX003 (ip), vehicle: other 95 % of control | dose: 100.0 mg/kg/injection, schedule: Q04DX003 (ip), vehicle: other 92 % of control

O=C(C1=Cc2ccccc2OC1)N1CCN(C(=O)C2=Cc3ccccc3OC2)CC1
inactive: [7] 100 % of control | [8] 97 % of control | dose: 400.0 mg/kg/injection, schedule: Q04DX003 (ip), vehicle: saline with Tween-80 95 % of control

CCCCOc1ccc(C(=O)NN)cc1
inactive: [1] 93 % of control | [2] 102 % of control | [9] 88 % of control

C[n+]1ccn2ccccc21
inactive: dose: 50.0 mg/kg/injection, schedule: Q01DX001 (ip), vehicle: saline with Tween-80 104 % of control | dose: 100.0 mg/kg/injection, schedule: Q01DX001 (ip), vehicle: saline with Tween-80 109 % of control

CN(C=O)c1cccc(C(=O)O)c1
inactive: dose: 100.0 mg/kg/injection, schedule: Q01DX001 (ip), vehicle: Klucel (hydroxypropylcellulose) (HPC) 96 % of control | dose: 100.0 mg/kg/injection, schedule: Q04DX003 (ip), vehicle: Klucel (hydroxypropylcellulose) (HPC) 103 % of control | dose: 200.0 mg/kg/injection, schedule: Q01DX001 (ip), vehicle: Klucel (hydroxypropylcellulose) (HPC) 94 % of control | dose: 200.0 mg/kg/injection, schedule: Q04DX003 (ip), vehicle: Klucel (hydroxypropylcellulose) (HPC) 103 % of control | dose: 400.0 mg/kg/injection, schedule: Q01DX001 (ip), vehicle: Klucel (hydroxypropylcellulose) (HPC) 91 % of control | dose: 400.0 mg/kg/injection, schedule: Q04DX003 (ip), vehicle: Klucel (hydroxypropylcellulose) (HPC) 97 % of control

O=C(O)C(O)(Cc1ccccc1)C(=O)C(O)C(O)CO (centres undefined)
inactive: dose: 50.0 mg/kg/injection, schedule: Q04DX002 (ip), vehicle: saline 87 % of control | dose: 100.0 mg/kg/injection, schedule: Q04DX002 (ip), vehicle: saline 106 % of control | dose: 200.0 mg/kg/injection, schedule: Q04DX002 (ip), vehicle: saline 91 % of control

C/C=C/C[P+](c1ccccc1)(c1ccccc1)c1cccc2ccccc12
inactive: dose: 25.0 mg/kg/injection, schedule: Q04DX002 (ip), vehicle: saline with Tween-80 94 % of control

C/C=C(/C)C(=O)O[C@H]1CC[C@@]2(C)[C@@H]3CC[C@H]4[C@]5(O)C[C@H](O)[C@@]6(O)[C@@H](CN7C[C@@H](C)CC[C@H]7[C@@]6(C)O)[C@]5(O)C[C@@]42O[C@@]13O
inactive: dose: 0.5 mg/kg/injection, schedule: Q01DX001 (ip), vehicle: saline 95 % of control | dose: 1.0 mg/kg/injection, schedule: Q01DX001 (ip), vehicle: saline 98 % of control | dose: 1.5 mg/kg/injection, schedule: Q04DX003 (ip), vehicle: saline with Tween-80 102 % of control | dose: 2.0 mg/kg/injection, schedule: Q01DX001 (ip), vehicle: saline 95 % of control | dose: 4.0 mg/kg/injection, schedule: Q01DX001 (ip), vehicle: saline 101 % of control | [6] 95 % of control

O=C1Cc2ccccc2O1
inactive: [2] 101 % of control | [9] 96 % of control

CCN(CC)CCNc1cc(C)nc(/N=C(\N)Nc2ccc(OCc3ccccc3)cc2)n1
inactive: dose: 6.25 mg/kg/injection, schedule: Q01DX009 (ip), vehicle: saline with Tween-80 100 % of control | dose: 6.25 mg/kg/injection, schedule: Q04DX003 (ip), vehicle: saline with Tween-80 103 % of control | dose: 12.5 mg/kg/injection, schedule: Q01DX009 (ip), vehicle: saline with Tween-80 98 % of control | dose: 12.5 mg/kg/injection, schedule: Q04DX003 (ip), vehicle: saline with Tween-80 101 % of control | dose: 25.0 mg/kg/injection, schedule: Q04DX003 (ip), vehicle: saline with Tween-80 103 % of control

CC(=O)NC(CCSCc1c2ccccc2c(C)c2ccccc12)C(=O)O (centres undefined)
inactive: [2] 86 % of control | [9] 98 % of control | [7] 95 % of control | [8] 95 % of control

O=S(=O)(Nc1cccc(C(F)(F)F)c1)c1cc(Cl)c(Cl)cc1Cl
inactive: dose: 50.0 mg/kg/injection, schedule: Q01DX009 (ip), vehicle: carboxymethylcellulose (CMC) 86 % of control | dose: 75.0 mg/kg/injection, schedule: Q04DX003 (ip), vehicle: carboxymethylcellulose (CMC) 94 % of control | dose: 100.0 mg/kg/injection, schedule: Q04DX002 (ip), vehicle: carboxymethylcellulose (CMC) 100 % of control and 102 % of control | dose: 150.0 mg/kg/injection, schedule: Q04DX003 (ip), vehicle: carboxymethylcellulose (CMC) 94 % of control | dose: 200.0 mg/kg/injection, schedule: Q04DX002 (ip), vehicle: carboxymethylcellulose (CMC) 97 % of control | dose: 300.0 mg/kg/injection, schedule: Q04DX003 (ip), vehicle: carboxymethylcellulose (CMC) 100 % of control | dose: 400.0 mg/kg/injection, schedule: Q04DX002 (ip), vehicle: carboxymethylcellulose (CMC) 101 % of control and 91 % of control

CC(=O)NCC(C)C
inactive: dose: 100.0 mg/kg/injection, schedule: Q01DX009 (ip), vehicle: saline 101 % of control | dose: 200.0 mg/kg/injection, schedule: Q01DX009 (ip), vehicle: saline 108 % of control | dose: 400.0 mg/kg/injection, schedule: Q01DX009 (ip), vehicle: saline 105 % of control
